Measured values from patent publication US20230094922A1, “METHODS OF THERAPEUTIC PROGNOSTICATION” (GENETIKAPLUS LTD., priority 2020, published 2023).

Test system: iPSC-derived cortical neurons
Assay type: cell-based
[1] = responders vs non-responders after 10 μM Bupropion, NS

CC(NC(C)(C)C)C(=O)c1cccc(Cl)c1 (stereo not drawn) [Bupropion, 3-Chloro-N-tert-butyl-β-keto-α-methylphenethylamin]
number of genes significantly downregulated in responders as compared to non-responders (10 μm Bupropion, p<0.01, Table 4): 174 genes
number of genes significantly upregulated in responders as compared to non-responders after treatment (10 μm Bupropion, p<0.01, over 60,000 genes probed): 69 genes
logFC ABLIM2 [1]: −1.305
logFC ABLIM3 [1]: −2.05
logFC ACTL6B [1]: −1.577
logFC ADCY1 [1]: −1.308
logFC ADCY5 [1]: −1.299
logFC ADCYAP1R1 [1]: −1.154
logFC ADD2 [1]: −0.7958
logFC ADGRB3 [1]: −1.496
logFC ADRA1B [1]: −2.202
logFC AGAP2 [1]: −1.343
logFC AK5 [1]: −1.456
logFC AKAP6 [1]: −1.215
logFC AKR1C2 [1]: −1.478
logFC ALPK3 [1]: −1.224
logFC AMER3 [1]: −1.722
logFC ANK1 [1]: −1.875
logFC ANK2 [1]: −0.959
logFC ANK3 [1]: −1.262
logFC ANKH [1]: −0.9269
logFC ANKRD30BL [1]: −2.897
logFC ANKRD53 [1]: −1.517
logFC ANKRD55 [1]: −1.879
logFC AP3B2 [1]: −1.482
logFC APBB1 [1]: −0.8199
logFC APC [1]: −0.916
logFC APLP1 [1]: −1.076
logFC ARHGAP20 [1]: −2.01
logFC ARHGAP26 [1]: −0.7629
logFC ARHGAP33 [1]: −0.9502
logFC ARHGAP36 [1]: −2.569
logFC ARPP21 [1]: −3.247
logFC ASB8 [1]: −0.7127
logFC ASIC4 [1]: −1.72
logFC ATAT1 [1]: −0.8189
logFC ATCAY [1]: −1.047
logFC ATP1A3 [1]: −1.336
logFC ATP2B3 [1]: −1.771
logFC ATP6V0A1 [1]: −0.6012
logFC ATP6V0E2 [1]: −1.011
logFC B3GALNT1 [1]: −2.052
logFC B3GALT2 [1]: −1.685
logFC BASP1 [1]: −0.8607
logFC BINI [1]: −0.8522
logFC BMERB1 [1]: −0.8373
logFC BRINP1 [1]: −1.623
logFC BRSK1 [1]: −0.753
logFC BSN [1]: −1.599
logFC C1orf216 [1]: −1.465
logFC C4orf50 [1]: −1.94
logFC CA10 [1]: −2.576
logFC CACNA1B [1]: −1.253
logFC CACNB1 [1]: −1.261
logFC CACNB3 [1]: −0.6878
logFC CACNG2 [1]: −1.666
logFC CACNG3 [1]: −1.337
logFC CADM3 [1]: −1.659
logFC CADM4 [1]: −0.6745
logFC CALB2 [1]: −1.647
logFC CAMK1D [1]: −0.9513
logFC CAMK2B [1]: −1.689
logFC CAMSAP3 [1]: −0.8932
logFC CASKIN1 [1]: −0.9781
logFC CCDC141 [1]: −2.886
logFC CCDC184 [1]: −1.385
logFC CDH7 [1]: −1.611
logFC CDH12 [1]: −2.03
logFC CDK5R1 [1]: −1.375
logFC CELF3 [1]: −1.26
logFC CELF4 [1]: −1.812
logFC CEP170B [1]: −0.6703
logFC CEP295NL [1]: −1.321
logFC CHGA [1]: −1.543
logFC CHGB [1]: −1.246
logFC CHRFAM7A [1]: −1.645
logFC CHRM2 [1]: −2.12
logFC CHRNA1 [1]: −2.49
logFC CHRNA4 [1]: −1.718
logFC CHRNB2 [1]: −1.815
logFC CHST1 [1]: −1.711
logFC CLASP2 [1]: −0.7536
logFC CLCN4 [1]: −0.8168
logFC CLDN5 [1]: −1.453
logFC CLIP2 [1]: −0.856
logFC CLSTN3 [1]: −0.8161
logFC CMIP [1]: −0.6391
logFC CNTN1 [1]: −1.722
logFC CORO2B [1]: −1.199
logFC CPLX1 [1]: −1.467
logFC CPLX2 [1]: −1.647
logFC CRB1 [1]: −1.691
logFC CREG2 [1]: −1.282
logFC CRMP1 [1]: −1.121
logFC CSMD1 [1]: −1.31
logFC CTNND2 [1]: −1.034
logFC CXCL11 [1]: −2.544
logFC CYGB [1]: −1.896
logFC DAAM1 [1]: −0.6945
logFC DBNDD1 [1]: −0.8117
logFC DCLK2 [1]: −1.477
logFC DES [1]: −2.44
logFC DIRAS1 [1]: −1.66
logFC DIRAS2 [1]: −1.952
logFC DISP2 [1]: −1.757
logFC DKK3 [1]: −1.052
logFC DMTN [1]: −1.522
logFC DOK5 [1]: −1.085
logFC DPF1 [1]: −1.34
logFC DPP10 [1]: −1.13
logFC DPYSL4 [1]: −1.082
logFC DRD2 [1]: −1.595
logFC DSCAML1 [1]: −1.404
logFC DTX1 [1]: −1.204
logFC EBF1 [1]: −1.335
logFC ELAVL4 [1]: −1.326
logFC ELFN2 [1]: −1.113
logFC EPB41L1 [1]: −0.9134
logFC EPHA8 [1]: −1.345
logFC ERAP2 [1]: −2.32
logFC ETFB [1]: −1.045
logFC EVI5L [1]: −0.9714
logFC EYA1 [1]: −0.8128
logFC F7 [1]: −1.608
logFC FAIM2 [1]: −1.923
logFC FAM131B [1]: −0.8962
logFC FAM219A [1]: −0.8506
logFC FAM222A [1]: −1.164
logFC FAR2 [1]: −1.384
logFC FAXC [1]: −0.9556
logFC FBXO41 [1]: −0.97
logFC FGF14 [1]: −1.149
logFC FMN2 [1]: −1.148
logFC FRMD5 [1]: −0.7871
logFC FRMPD4 [1]: −2.13
logFC FSTL4 [1]: −1.8
logFC FSTL5 [1]: −1.624
logFC GABBR2 [1]: −2.251
logFC GABRG3 [1]: −1.687
logFC GABRR1 [1]: −2.904
logFC GAD2 [1]: −1.46
logFC GALNT9 [1]: −1.69
logFC GALNTL6 [1]: −1.861
logFC GAP43 [1]: −1.304
logFC GCK [1]: −1.587
logFC GDPD5 [1]: −1.245
logFC GFOD1 [1]: −1.12
logFC GLRA1 [1]: −2.174
logFC GLRA2 [1]: −1.929
logFC GLRA3 [1]: −3.119
logFC GMIP [1]: −0.765
logFC GNAO1 [1]: −1.181
logFC GOLGA7B [1]: −1.854
logFC GPR26 [1]: −2.221
logFC GPR139 [1]: −1.695
logFC GPR158 [1]: −1.27
logFC GPRIN1 [1]: −1.521
logFC GPSM1 [1]: −0.733
logFC GRIA4 [1]: −1.263
logFC GRIK2 [1]: −1.1
logFC GRIN1 [1]: −1.919
logFC HECW1 [1]: −1.709
logFC HERC1 [1]: −0.5953
logFC HID1 [1]: −0.975
logFC HK1 [1]: −0.5528
logFC HRH3 [1]: −1.315
logFC HTR5A [1]: −2.98
logFC IFI27 [1]: −1.463
logFC IFIT5 [1]: −0.8218
logFC IGLON5 [1]: −0.9869
logFC IGSF8 [1]: −0.6614
logFC INA [1]: −1.425
logFC INSM1 [1]: −1.183
logFC ISL1 [1]: −2.075
logFC ISLR2 [1]: −2.565
logFC JAKMIP1 [1]: −1.737
logFC KBTBD11 [1]: −1.03
logFC KCNA2 [1]: −1.235
logFC KCNC2 [1]: −2.213
logFC KCNH6 [1]: −1.966
logFC KCNIP1 [1]: −1.502
logFC KCNJ3 [1]: −1.979
logFC KCNJ6 [1]: −1.811
logFC KCNJ9 [1]: −1.383
logFC KCNK3 [1]: −2.03
logFC KCNQ2 [1]: −1.053
logFC KCNS2 [1]: −2.976
logFC KIAA0513 [1]: −1.005
logFC KIAA1755 [1]: −1.809
logFC KIF3C [1]: −1.295
logFC KIF5A [1]: −1.285
logFC KIFAP3 [1]: −0.9071
logFC KIRREL3 [1]: −1.338
logFC KLHL1 [1]: −2.102
logFC LG14 [1]: −0.9845
logFC LGI2 [1]: −1.253
logFC LGI3 [1]: −2.434
logFC LHFPL4 [1]: −1.28
logFC LMTK3 [1]: −0.9148
logFC LRATD1 [1]: −1.429
logFC LRFN2 [1]: −1.645
logFC LRRC4C [1]: −1.523
logFC LRRC7 [1]: −1.643
logFC LRRC55 [1]: −1.342
logFC LRRTM2 [1]: −1.587
logFC LSM11 [1]: −0.7282
logFC LZTS1 [1]: −1.332
logFC MAP1A [1]: −1.103
logFC MAPK8IP2 [1]: −1.461
logFC MAPRE2 [1]: −0.7432
logFC MAST1 [1]: −1.276
logFC MFNG [1]: −1.262
logFC MFSD6 [1]: −1.112
logFC MKRN3 [1]: −1.448
logFC MPO [1]: −2.163
logFC MPP3 [1]: −1.029
logFC MRAS [1]: −0.5698
logFC MTMR7 [1]: −1.1
logFC MTSS1 [1]: −0.9406
logFC MX1 [1]: −1.291
logFC MXRA7 [1]: −0.6421
logFC MYL1 [1]: −4.411
logFC NACAD [1]: −0.8329
logFC NAP1L5 [1]: −0.871
logFC NCAM1 [1]: −1.37
logFC NCAM2 [1]: −1.147
logFC NDRG4 [1]: −1.32
logFC NECAP1 [1]: −0.6044
logFC NEGR1 [1]: −1.829
logFC NFASC [1]: −1.15
logFC NHLH1 [1]: −1.305
logFC NHLH2 [1]: −2.363
logFC NKAIN4 [1]: −0.8753
logFC NMNAT2 [1]: −1.044
logFC NOVAI [1]: −0.9754
logFC NPAS3 [1]: −1.402
logFC NPM2 [1]: −1.674
logFC NR1I3 [1]: −1.278
logFC NRSN1 [1]: −1.718
logFC NRXN1 [1]: −1.372
logFC NSG1 [1]: −1.704
logFC NSG2 [1]: −1.942
logFC NTM [1]: −1.35
logFC NTNG1 [1]: −1.193
logFC NWD2 [1]: −2.251
logFC NXPH4 [1]: −1.744
logFC NYAP1 [1]: −0.9844
logFC NYAP2 [1]: −2.578
logFC OLFM2 [1]: −1.002
logFC OTUD7A [1]: −1.036
